One assay deals with Mcl-1 protein (Homo sapiens, UniProt Q07820). The assay can be described thus: Inhibition of Mcl-1 by the fluorescence polarisation technique. In kind it is binding. How it is done:
The relative binding potency of each compound was determined via fluorescence Polarisation (FP). The method utilised a Fluorescein labelled ligand Fluorescein-βAla-Ahx-[A-REIGAQLRRMADDLNAQY (SEQ ID NO: 1)]-OH; mw 2,765) which binds to the Mcl-1 protein (such that corresponds to the UniProtKB® primary accession number: Q07820) leading to an increased anisotropy measured in milli-polarisation (mP) units using a reader. The addition of a compound which binds competitively to the same site as the ligand will result in a greater proportion of unbound ligand in the system indicated by a decrease in mP units.
Method 1: An 11 point serial dilution of each compound was prepared in DMSO and 2 μl transferred into flat bottomed, low binding, 384-well plate (final DMSO concentration 5%). 38 μl of buffer (10 mM 4-(2-hydroxyethyl)-1-piperazineethanesulfonic acid [HEPES], 150 mM NaCl, 0.05% Tween 20, pH 7.4), containing the Fluorescein labelled ligand (final concentration 1 nM) and Mcl-1 protein (final concentration 5 nM) was then added.
(§1) Assay plates were incubated ˜2 hours at room temperature before FP was measured on a […] Synergy2 reader (Ex. 528 nm, Em. 640 nm, Cut off 510 nm) and mP units calculated. The binding of increasing doses of test compound was expressed as a percentage reduction in mP compared to a window established between ‘5% DMSO only’ and ‘100% inhibition’ controls. 11-point dose response curves were plotted with XL-Fit software using a 4-Parameter Logistic Model (Sigmoidal Dose-Response Model) and the inhibitory concentrations that gave a 50% reduction in mP (IC50) were determined. Results obtained using Method 1 are presented in Table 1 below; IC50 of Mcl-1 inhibition obtained using Method 1 are not underlined.
Method 2: An 11 point serial dilution of each compound was prepared in DMSO and 2 μl transferred into flat bottomed, low binding, 384-well plate (final DMSO concentration 5%). 38 μl of buffer (20 mM Na2HPO4, 1 mM EDTA, 50 mM NaCl, pH 7.4), containing the Fluorescein labelled ligand (final concentration 10 nM) and Mcl-1 protein (final concentration 10 nM) was then added.
as §1, with “inhibition’ controls (50 μM unlabelled ligand).” for “inhibition’ controls.”, “Method 2” for “Method 1”, “are” for “are not”
On the technique in general: Polarisation of emitted light reports the rotation of a fluorescent probe.

Assay [1] concerns H929 multiple myeloma tumour line. The assay is described as follows: In vitro cytotoxicity, Microculture Tetrazolium Assay on H929 cells. In kind it is cell-based. The conditions noted are these: cell viability, read-out: IC50 (M) MTT H929. As for the experimental part: The cytotoxicity studies were carried out on the H929 multiple myeloma tumour line.
The cells are distributed onto microplates and exposed to the test compounds for 48 hours. The cell viability is then quantified by a colorimetric assay, the Microculture Tetrazolium Assay (Cancer Res., 1987, 47, 939-942).

Setting [2] is: Method 1 (not underlined) or Method 2 (underlined), underlining not visible, first value where cell prints two, read-out: IC50 (M) Mcl-1 FP.
[3] abbreviates: Homo sapiens, NCI-H929, exposed for 48 hours.
Setting [4] is: @ 10 μM test compound, partial inhibitors.

Where two headings read alike, the source gives them in different places.

Consider 17 compounds from patent US10323041B2, “Bicyclic derivatives, a process for their preparation and pharmaceutical compositions containing them” (LES LABORATOIRES SERVIER, priority 2015, dated 2019).

Sequence of Mcl-1 protein (Q07820 whole entry): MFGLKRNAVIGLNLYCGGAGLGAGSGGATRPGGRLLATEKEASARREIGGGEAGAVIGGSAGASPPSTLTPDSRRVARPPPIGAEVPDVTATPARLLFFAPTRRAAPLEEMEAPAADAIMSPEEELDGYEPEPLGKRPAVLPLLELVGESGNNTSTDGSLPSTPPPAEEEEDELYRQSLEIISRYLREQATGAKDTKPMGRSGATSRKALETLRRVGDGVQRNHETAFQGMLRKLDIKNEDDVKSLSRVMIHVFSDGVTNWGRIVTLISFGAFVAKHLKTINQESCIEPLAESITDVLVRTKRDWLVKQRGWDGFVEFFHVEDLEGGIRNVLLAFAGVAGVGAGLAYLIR

Broadly, the IC50 is the concentration that inhibits the measured activity by half. For `COc1ccccc1-c1nccc(COc2ccccc2CC(Oc2cccc3oc(-c4ccc(F)cc4)c(-c4ccc(OCCN5CCN(C)CC5)c(Cl)c4C)c23)C(=O)O)n1` (single isomer, unassigned) [Example 64], the IC50 on Mcl-1 protein (setting [2]) amounted to 7.4e-09 M; in assay [1] (setting [3]) it was 4.71e-08 M.
On the same counts, the results for `COc1ccccc1-c1nccc(COc2ccccc2CC(Oc2cccc3c2c(-c2ccc(OCCN4CCN(C)CC4)c(Cl)c2C)c(-c2ccc(F)cc2)n3C)C(=O)O)n1` (single isomer, unassigned) [Example 69] are 2.4e-08 M and 1.04e-07 M.
Taken in the same sequence, the figures for `COc1ccccc1C[C@@H](Oc1ncnc2oc(-c3ccc(F)cc3)c(-c3ccc(OCCN4CCN(C)CC4)c(Cl)c3C)c12)C(=O)O` [Example 3, (2R)-2-{[5-{3-chloro-2-methyl-4-[2-(4-methylpiperazin-1-yl)ethoxy]phenyl}-6-(4-fluorophenyl)furo[2,3-d]pyrimidin-4-yl]oxy}-3-(2-methoxyphenyl) propanoic acid] were 1.7e-08 M and 3.64e-07 M.
Taken in the same sequence, the figures for `Cc1c(-c2c(-c3ccc(F)cc3)oc3ncnc(O[C@H](Cc4ccccc4OCc4cnccn4)C(=O)O)c23)ccc(OCCN2CCN(C)CC2)c1Cl` [Example 4, (2R)-2-{[5-{3-chloro-2-methyl-4-[2-(4-methylpiperazin-1-yl)ethoxy]phenyl}-6-(4-fluorophenyl)furo[2,3-d]pyrimidin-4-yl]oxy}-3-[2-(pyrazin-2-ylmethoxy)phenyl]propanoic acid] were 2.9e-08 M and 3.29e-07 M.
Regarding `Cc1c(-c2c(-c3ccc(Cl)o3)oc3ncnc(O[C@H](Cc4ccccc4OCc4cnccn4)C(=O)O)c23)ccc(OCCN2CCN(C)CC2)c1Cl` [Example 5, (2R)-2-{[6-(5-chlorofuran-2-yl)-5-{3-chloro-2-methyl-4-[2-(4-methylpiperazin-1-yl)ethoxy]phenyl}furo[2,3-d]pyrimidin-4-yl]oxy}-3-[2-(pyrazin-2-ylmethoxy)phenyl]propanoic acid], the IC50 came out at 1.5e-08 M on Mcl-1 protein (setting [2]) and 6.19e-07 M in assay [1] (setting [3]).
On the same counts, the results for `COc1ccccc1CC(Nc1ncnc2oc(-c3ccc(F)cc3)c(-c3ccc(OCCN4CCN(C)CC4)c(Cl)c3C)c12)C(=O)O` [Example 7, N-[(5Sa)-5-{3-chloro-2-methyl-4-[2-(4-methylpiperazin-1-yl)ethoxy]phenyl}-6-(4-fluorophenyl)furo[2,3-d]pyrimidin-4-yl]-2-methoxy-D-phenylalanine] are 1.1e-07 M and 7.57e-07 M.
Consider `COc1ccccc1-c1nccc(COc2ccccc2C[C@@H](Nc2ncnc3oc(-c4ccc(F)cc4)c(-c4ccc(OCCN5CCN(C)CC5)c(Cl)c4C)c23)C(=O)O)n1` [Example 9, N-[(5Ra)-5-{3-chloro-2-methyl-4-[2-(4-methylpiperazin-1-yl)ethoxy]phenyl}-6-(4-fluorophenyl)furo[2,3-d]pyrimidin-4-yl]-2-{[2-(2-methoxyphenyl)pyrimidin-4-yl]methoxy}-D-phenylalanine], for which the concentration for half-maximal inhibition (IC50) stood at 8.6e-08 M at Mcl-1 protein (setting [2]) and 6.89e-08 M in assay [1] (exposed for 48 hours).
In the case of `CCc1sc2cccc(OC(Cc3ccccc3)C(=O)O)c2c1-c1ccc(OCCN2CCN(C)CC2)c(Cl)c1C` [Example 51, (2R)-2-[((3Sa)-3-{3-chloro-2-methyl-4-[2-(4-methylpiperazin-1-yl)ethoxy]phenyl}-2-ethyl-1-benzothiophen-4-yl)oxy]-3-phenylpropanoic acid], the IC50 on Mcl-1 protein (setting [2]) was found to be 3.6e-07 M; at Mcl-1 protein (value after '/', presumably the other FP method (Method 1 / Method 2), read-out: IC50 (M) Mcl-1 FP, second value of the cell), 5.5e-09 M; in assay [1] (setting [3]), 1.1e-05 M.
In the case of `COc1ccccc1CC(Oc1cccc2c(Cl)c(-c3ccc(F)cc3)n(-c3ccc(OCCN4CCN(C)CC4)c(Cl)c3C)c12)C(=O)O` [Example 57, (2R)-2-{[3-chloro-(1Sa)-1-{3-chloro-2-methyl-4-[2-(4-methylpiperazin-1-yl)ethoxy]phenyl}-2-(4-fluorophenyl)-1H-indol-7-yl]oxy}-3-(2-methoxyphenyl)propanoic acid], the IC50 on Mcl-1 protein (setting [2]) is 1.7e-07 M.
Take `COc1ccccc1CC(Oc1cccc2cc(-c3ccco3)n(-c3ccc(OCCN4CCN(C)CC4)c(Cl)c3C)c12)C(=O)O` [Example 58, (2R)-2-{[(1Ra)-1-{3-chloro-2-methyl-4-[2-(4-methylpiperazin-1-yl)ethoxy]phenyl}-2-(furan-2-yl)-1H-indol-7-yl]oxy}-3-(2-methoxyphenyl)propanoic acid]: at Mcl-1 protein (setting [4]), the “percentage fluorescence polarization inhibition” value stood at 51.9% @ 10 μM.
As to `COc1ccccc1CC(Oc1cccc2cc(-c3ccco3)n(-c3ccc(OCCN4CCN(C)CC4)c(Cl)c3C)c12)C(=O)O` [Example 59, (2R)-2-{[(1Sa)-1-{3-chloro-2-methyl-4-[2-(4-methylpiperazin-1-yl)ethoxy]phenyl}-2-(furan-2-yl)-1H-indol-7-yl]oxy}-3-(2-methoxyphenyl)propanoic acid], the values for the half-maximal inhibitory concentration (IC50) (on Mcl-1 protein (setting [2]); in assay [1] (setting [3])) were 3.6e-08 M and 1.24e-06 M, respectively.
Taken in the same sequence, the figures for `COc1ccccc1CC(Oc1cccc2cc(-c3ccc(F)o3)n(-c3ccc(OCCN4CCN(C)CC4)c(Cl)c3C)c12)C(=O)O` [Example 60, (2R)-2-{[(1Sa)-1-{3-chloro-2-methyl-4-[2-(4-methylpiperazin-1-yl)ethoxy]phenyl}-2-(5-fluorofuran-2-yl)-1H-indol-7-yl]oxy}-3-(2-methoxyphenyl)propanoic acid] were 1.9e-08 M and 5.68e-07 M.
For `COc1ccccc1CC(Oc1cccc2oc(-c3ccc(F)cc3)c(-c3ccc(OCCN4CCN(C)CC4)c(Cl)c3C)c12)C(=O)O` [Example 61, (2R)-2-{[(3Ra)-3-{3-chloro-2-methyl-4-[2-(4-methylpiperazin-1-yl)ethoxy]phenyl}-2-(4-fluorophenyl)-1-benzofuran-4-yl]oxy}-3-(2-methoxyphenyl)propanoic acid], the “percentage fluorescence polarization inhibition” value at Mcl-1 protein (setting [4]) was found to be 52.8% @ 10 μM.
As for `COc1ccccc1CC(Oc1cccc2oc(-c3ccc(F)cc3)c(-c3ccc(OCCN4CCN(C)CC4)c(Cl)c3C)c12)C(=O)O` [Example 62, (2R)-2-{[(3Sa)-3-{3-chloro-2-methyl-4-[2-(4-methylpiperazin-1-yl)ethoxy]phenyl}-2-(4-fluorophenyl)-1-benzofuran-4-yl]oxy}-3-(2-methoxyphenyl)propanoic acid], the IC50 on Mcl-1 protein (setting [2]) was found to be 8.2e-07 M.
Still for that read-out and setting: as for `Cc1c(-c2c(-c3ccc(F)cc3)oc3cccc(OC(Cc4ccccc4OCC(F)(F)F)C(=O)O)c23)ccc(OCCN2CCN(C)CC2)c1Cl` [Example 65, (2R)-2-{[(3Sa)-3-{3-chloro-2-methyl-4-[2-(4-methylpiperazin-1-yl)ethoxy]phenyl}-2-(4-fluorophenyl)-1-benzofuran-4-yl]oxy}-3-[2-(2,2,2-trifluoroethoxy)phenyl]propanoic acid], the figure is 1e-06 M; as for `Cc1c(-c2c(-c3ccc(F)cc3)oc3cc(F)cc(OC(Cc4ccccc4OCC(F)(F)F)C(=O)O)c23)ccc(OCCN2CCN(C)CC2)c1Cl` [Example 66, (2R)-2-{[(3Sa)-3-{3-chloro-2-methyl-4-[2-(4-methylpiperazin-1-yl)ethoxy]phenyl}-6-fluoro-2-(4-fluorophenyl)-1-benzofuran-4-yl]oxy}-3-[2-(2,2,2-trifluoroethoxy)phenyl]propanoic acid], 1.6e-06 M.
One may read the inhibition as how much of the control response was suppressed. Take `Cc1c(Cl)cccc1-c1csc2ccnc(N[C@H](Cc3ccccc3)C(=O)O)c12` [Example 70, N-[3-(3-chloro-2-methylphenyl)thieno[3,2-c]pyridin-4-yl]-D-phenylalanine]: the inhibition at 10 µM on Mcl-1 protein (@ 10 μM test compound, partial inhibitors, read-out: percentage fluorescence polarization inhibition) is 13.6%.
